Patent US9657351B2, “MRNA-based gene expression for personalizing patient cancer therapy with an MDM2 antagonist” (Hoffmann-La Roche Inc., priority 2013, dated 2017)

Assays:
Assay in all cases: COMPOUND A In Vitro Assay
Type in all cases: cell-based
MFM-223 = settings: Homo sapiens, Breast, mammary gland, TP53 Mutant
Summary of the method: (§1)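 An IC50 per line came from high-throughput treatment with RG7112 across a multi-tumour human cancer cell panel.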

AsPC-1 = settings: Homo sapiens, ASPC1, Pancreas, TP53 Mutant
Summary of the method: as §1

MDA-MB-453 = settings: Homo sapiens, Breast, mammary gland, TP53 Mutant
Summary of the method: as §1

THP-1 = settings: Homo sapiens, Blood, TP53 Mutant
Summary of the method: as §1

ABC-1 = settings: Homo sapiens, Lung, TP53 Mutant
Summary of the method: as §1

AGS = settings: Homo sapiens
Summary of the method: as §1

U-87 MG = settings: Homo sapiens
Summary of the method: as §1

NCI-H838 = settings: Homo sapiens, Lung, TP53 Mutant
Summary of the method: as §1

J82 = settings: Homo sapiens, Urinary, bladder, TP53 Mutant
Summary of the method: as §1

HT-1197 = settings: Homo sapiens
Summary of the method: as §1

SK-BR-3 = settings: Homo sapiens, Pleura, TP53 Mutant
Summary of the method: as §1

NCI-N87 = settings: Homo sapiens, Stomach, TP53 Mutant
Summary of the method: as §1

MDA-MB-134-VI = settings: Homo sapiens, Breast, mammary gland, TP53 Mutant
Summary of the method: as §1

NCI-H2009 = settings: Homo sapiens, Lung, TP53 Mutant
Summary of the method: as §1

A2058 = settings: Homo sapiens, Skin, TP53 Mutant
Summary of the method: as §1

HCC366 = settings: Homo sapiens, Lung, TP53 Mutant
Summary of the method: as §1

BT-474 = settings: Homo sapiens, Breast, mammary gland, TP53 Mutant
Summary of the method: as §1

HUP-T4 = settings: Homo sapiens, Pancreas, TP53 Mutant
Summary of the method: as §1

U266B1 = settings: Homo sapiens
Summary of the method: as §1

BFTC-905 = settings: Homo sapiens, Urinary, bladder, TP53 Mutant
Summary of the method: as §1

MKN-74 = settings: Homo sapiens
Summary of the method: as §1

NCI-H508 = settings: Homo sapiens, Intestine, large, caecum, TP53 Mutant
Summary of the method: as §1

HCC1569 = settings: Homo sapiens, Breast, mammary gland, TP53 Mutant
Summary of the method: as §1

SNU-1 = settings: Homo sapiens
Summary of the method: as §1

SW780 = settings: Homo sapiens
Summary of the method: as §1

Calu-1 = settings: Homo sapiens, Lung, TP53 Wild type
Summary of the method: as §1

COLO 201 = settings: Homo sapiens, Intestine, large, colon, TP53 Mutant
Summary of the method: as §1

Calu-6 = settings: Homo sapiens, Lung, TP53 Mutant
Summary of the method: as §1

SR = settings: Homo sapiens, Lymphocyte, TP53 Wild type
Summary of the method: as §1

Hep3B = settings: Homo sapiens, Liver, TP53 Mutant
Summary of the method: as §1

SBC-5 = settings: Homo sapiens, Lung, TP53 Mutant
Summary of the method: as §1

HDLM-2 = settings: Homo sapiens, Lymphocyte B, TP53 Mutant
Summary of the method: as §1

NCI-H716 = settings: Homo sapiens, Intestine, large, caecum, TP53 Mutant
Summary of the method: as §1

MDA-MB-435S = settings: Homo sapiens, Skin, TP53 Mutant
Summary of the method: as §1

NCI-H1650 = settings: Homo sapiens, Lung, TP53 Mutant
Summary of the method: as §1

COLO 205 = settings: Homo sapiens, Intestine, large, colon, TP53 Mutant
Summary of the method: as §1

MDA-MB-468 = settings: Homo sapiens, Breast, mammary gland, TP53 Mutant
Summary of the method: as §1

SMILES: CCOc1cc(C(C)(C)C)ccc1C1=N[C@@](C)(c2ccc(Cl)cc2)[C@@](C)(c2ccc(Cl)cc2)N1C(=O)N1CCN(CCCS(C)(=O)=O)CC1 [COMPOUND A]
- IC50 (MFM-223): 17 µM
- IC50 (AsPC-1): 19 µM
- IC50 (MDA-MB-453): 20 µM
- IC50 (THP-1): 9.7 µM
- IC50 (ABC-1): 9.9 µM
- IC50 (AGS; AGS cells): 100 nM
- IC50 (AGS; Stomach, TP53 Wild type): 130 nM
- IC50 (U-87 MG; Brain, TP53 Wild type): 180 nM
- IC50 (U-87 MG; U-87 MG cells): 200 nM
- IC50 (NCI-H838): 14 µM
- IC50 (J82): 20 µM
- IC50 (HT-1197; HT1197, HT-1197, Urinary, bladder, TP53 Wild type): 190 nM
- IC50 (HT-1197; HT1197, HT-1197 cells): 200 nM
- IC50 (SK-BR-3): 21 µM
- IC50 (NCI-N87): 12 µM
- IC50 (MDA-MB-134-VI): 38 µM
- IC50 (NCI-H2009): 9.9 µM
- IC50 (A2058): 17 µM
- IC50 (HCC366): 8.7 µM
- IC50 (BT-474): 19 µM
- IC50 (HUP-T4): 17 µM
- IC50 (U266B1; U266B1, Lymphocyte B, TP53 Mutant): 18 µM
- IC50 (U266B1; U266B1 cells): 18 µM
- IC50 (BFTC-905): 19 µM
- IC50 (MKN-74; MKN-74, MKN-74, Muscle, smooth, stomach, TP53 Wild type): 880 nM
- IC50 (MKN-74; MKN-74, MKN-74 cells): 900 nM
- IC50 (NCI-H508): 1200 nM
- IC50 (HCC1569): 15 µM
- IC50 (SNU-1; SNU1, SNU-1, Stomach, TP53 Wild type): 370 nM
- IC50 (SNU-1; SNU1, SNU-1 cells): 400 nM
- IC50 (SW780; SW780, SW780, Urinary, bladder, TP53 Wild type): 970 nM
- IC50 (SW780; SW780, SW780 cells): 1000 nM
- IC50 (Calu-1): 14 µM
- IC50 (COLO 201): 10 µM
- IC50 (Calu-6): 17 µM
- IC50 (SR): 43 nM
- IC50 (Hep3B): 6.7 µM
- IC50 (SBC-5): 18 µM
- IC50 (HDLM-2): 33 µM
- IC50 (NCI-H716): 13 µM
- IC50 (MDA-MB-435S): 12 µM
- IC50 (NCI-H1650): 10 µM
- IC50 (COLO 205): 9.1 µM
- IC50 (MDA-MB-468): 10 µM
